Data on six compounds can be found in patent US9169217B2, “Arylalkyl esters of 4-amino-6-(substituted phenyl)-picolinates and 6-amino-2-(substituted phenyl)-pyrimidinecarboxylates and their use as selective herbicides for crops” (Dow AgroSciences LLC, priority 2011, dated 2015).

Each structure is given as a SMILES string.

The test system of series [1] is Fimbristylis miliacea (L.) VAHL (globe fringerush). Put plainly: In-water applied herbicidal activity in transplanted paddy rice (Example 17). The series is classed as in vivo. Particulars: rice cropping systems, in-water applied (paddy), 35 g ae/ha, 21 DAA; may represent multiple trials. As for the experimental part: (§1) Weed seeds or nutlets of the desired test plant species were planted in puddled soil (mud) prepared by mixing a non-sterilized mineral soil (28 percent silt, 18 percent clay, and 54 percent sand, with a pH of about 7.3 to 7.8 and an organic matter content of about 1.0 percent) and water at a ratio of 100 kilograms (kg) of soil to 19 liters (L) of water. The prepared mud was dispensed in 250 mL aliquots into 480 mL non-perforated plastic pots with a surface area of 91.6 cm^2 leaving a headspace of 3 cm in each pot. Rice seeds were planted in Sun Gro MetroMix 306 planting mixture, which typically has a pH of 6.0 to 6.8 and an organic matter content of about 30 percent, in plastic plug trays. Seedlings at the second or third leaf stage of growth were transplanted into 650 mL of mud contained in 960 mL non-perforated plastic pots with a surface area of 91.6 cm^2 four days prior to herbicide application. The paddy was created by filling the 3 cm headspace of the pots with water. When required to ensure good germination and healthy plants, a fungicide treatment and/or other chemical or physical treatment was applied. The plants were grown for 4-14 d in a greenhouse with an approximate 14-h photoperiod which was maintained at about 29° C. during the day and 26° C. during the night. Nutrients were added as Osmocote (17:6:10, Nitrogen:Phosphorus:Potassium (N:P:K)+minor nutrients) at 2 grams (g) per cup. Water was added on a regular basis to maintain the paddy flood, and supplemental lighting was provided with overhead metal halide 1000-Watt lamps as necessary. The plants were employed for testing when they reached the second or third true leaf stage.
(§2) Treatments consisted of esters of compounds 1-4, 6-33, 35-39, 41 and 42 and A-G. Compound A is methyl 4-amino-3-chloro-6-(4-chloro-3-ethoxy-2-fluorophenyl)-5-fluoropicolinate; compound B is methyl 4-amino-3-chloro-6-(4-cyclopropylphenyl)-5-fluoropicolinate; compound C is methyl 4-amino-3-chloro-6-(2,4-dichloro-3-methoxyphenyl)picolinate; compound D is methyl 6-amino-2-(4-chloro-2-fluoro-3-methoxyphenyl)-5-vinylpyrimidine-4-carboxylate; compound E is methyl 4-amino-3-chloro-6-(4-chloro-2-fluoro-3-methoxyphenyl)-5-fluoropicolinate; compound F is methyl 6-amino-2-(4-chloro-2-fluoro-3-methoxyphenyl)-5-methoxypyrimidine-4-carboxylate; and compound G is methyl 4-amino-3-chloro-6-(4-chloro-2-fluoro-3-methoxyphenyl)picolinate. Weighed amounts of technical grade compounds were placed in individual 120 mL glass vials and were dissolved in 20 mL of acetone to obtain concentrated stock solutions. […] The concentrated stock solutions obtained were diluted with 20 mL of an aqueous mixture containing 2.5% Agri-dex crop oil concentrate (v/v). The final application solutions contained 1.25% (v/v) Agri-dex crop oil concentrate. Generally, multiple concentrations were tested utilizing the same stock solution. Applications were made by injecting an appropriate amount of the application solution into the aqueous layer of the paddy. Control plants were treated in the same manner with the solvent blank.
(§3) The treated plants and control plants were placed in a greenhouse as described above and water was added as needed to maintain a paddy flood. After 3 weeks the condition of the test plants, compared with that of the untreated plants, was determined visually and scored on a scale of 0 to 100 percent where 0 corresponds to no injury and 100 corresponds to complete kill.
(§4) By applying the well-accepted probit analysis as described by J. Berkson in Journal of the American Statistical […], 48, 565 (1953) and by D. Finney in “Probit Analysis” Cambridge University Press (1952), the data gathered can be used to calculate GR50 and GR80 values, which are defined as growth reduction factors that correspond to the effective dose of herbicide required to kill or control 50 percent or 80 percent, respectively, of a target plant.

Series [2] has as its system Cyperus rotundus L. (purple nutsedge). The series is described as above. The series is classed as in vivo. Conditions: rice cropping systems, 35 g ae/ha, 21 DAA, may represent multiple trials. As for the experimental part:
as §1, §2, §3, §4

Series [3] deals with Echinochloa crus-galli (L.) P.BEAUV. (barnyardgrass). The series is described as above. The series is classed as in vivo. Particulars: Echinochloa crus-galli, 504 h; rice cropping systems, in-water applied (paddy), 35 g ae/ha, 21 DAA; may represent multiple trials; read-out: Visual Injury (%) ECHCG. As for the experimental part: as §1, §2, §3, §4
Series [4] has as its system Brachiaria platyphylla (GRISEB.) NASH (broadleaf signalgrass). The series can be described thus: Postemergence foliar-applied herbicidal activity in direct seeded rice (Example 16). The series is classed as in vivo. Conditions: rice cropping systems, 8.75 g ae/ha, 21 DAA, may represent multiple trials.
Text: (§5) Seeds or nutlets of the desired test plant species were planted in a soil matrix prepared by mixing a loam soil (43 percent silt, 19 percent clay, and 38 percent sand, with a pH of about 8.1 and an organic matter content of about 1.5 percent) and river sand in an 80 to 20 ratio. The soil matrix was contained in plastic pots with a surface area of 139.7 cm^2. When required to ensure good germination and healthy plants, a fungicide treatment and/or other chemical or physical treatment was applied. The plants were grown for 10-17 d in a greenhouse with an approximate 14-h photoperiod which was maintained at about 29° C. during the day and 26° C. during the night. Nutrients and water were added on a regular basis and supplemental lighting was provided with overhead metal halide 1000-Watt lamps as necessary. The plants were employed for testing when they reached the second or third true leaf stage.
(§6) Treatments consisted of esters of compounds 1-4, 6-8, 10, 11, 13-16, 20-31, 35, 38, 41 and 42 and A-E. Compound A is methyl 4-amino-3-chloro-6-(4-chloro-3-ethoxy-2-fluorophenyl)-5-fluoropicolinate; compound B is methyl 4-amino-3-chloro-6-(4-cyclopropylphenyl)-5-fluoropicolinate; compound C is methyl 4-amino-3-chloro-6-(2,4-dichloro-3-methoxyphenyl)picolinate; compound D is methyl 6-amino-2-(4-chloro-2-fluoro-3-methoxyphenyl)-5-vinylpyrimidine-4-carboxylate; and compound E is methyl 4-amino-3-chloro-6-(4-chloro-2-fluoro-3-methoxyphenyl)-5-fluoropicolinate. Weighed amounts of technical grade compounds were placed in 25 mL glass vials and dissolved in a volume of 97:3 v/v acetone-DMSO to obtain 12× stock solutions. […] The concentrated stock solutions were added to the spray solutions so that the final acetone and DMSO concentrations were 16.2% and 0.5%, respectively. Spray solutions were diluted to the appropriate final concentrations with the addition of 10 mL of an aqueous mixture of 1.5% (v/v) Agri-dex crop oil concentrate. Generally, multiple concentrations of spray solutions were formulated and tested utilizing the same stock solution. The final spray solutions contained 1.25% (v/v) Agri-dex crop oil concentrate. Compound requirements are based upon a 12 mL application volume at a rate of 187 L/ha. Spray solutions were applied to the plant material with an overhead Mandel track sprayer equipped with 8002E nozzles calibrated to deliver 187 L/ha over an application area of 0.503 square meters (m^2) at a spray height of 18 inches (43 cm) above average plant canopy height. Control plants were sprayed in the same manner with the solvent blank.
(§7) The treated plants and control plants were placed in a greenhouse as described above and watered by sub-irrigation to prevent wash-off of the test compounds. After 3 weeks, the condition of the test plants, compared with that of the untreated plants, was determined visually and scored on a scale of 0 to 100 percent where 0 corresponds to no injury and 100 corresponds to complete kill.
as §4

Series [5] concerns Cyperus difformis L. (small-flower flatsedge). Described as above. The series is classed as in vivo. Conditions: post-emergence, 504 h, rice cropping systems, foliar-applied, 8.75 g ae/ha, 21 DAA, may represent multiple trials, read-out: Visual Injury (%) CYPDI.
Text: as §5, §6, §7, §4

Series [6] relates to Echinochloa colonum (L.) LINK (junglerice). The series is described as above. The series is classed as in vivo. Conditions: Echinochloa colona, post-emergence, 504 h, rice cropping systems, 8.75 g ae/ha, 21 DAA, may represent multiple trials, read-out: Visual Injury (%) ECHCO.
Text: as §5, §6, §7, §4

In series [7] the test system is Scirpus juncoides ROXB. (Japanese bulrush). The series is described as above. The series is classed as in vivo. Conditions: Schoenoplectiella juncoides, post-emergence, 504 h; rice cropping systems, foliar-applied, 8.75 g ae/ha, 21 DAA; may represent multiple trials; read-out: Visual Injury (%) SCPJU.
Text: as §5, §6, §7, §4

The test system is the same in series [8]. Put plainly: In-water applied herbicidal activity in transplanted paddy rice (Example 17). The series is classed as in vivo. Particulars: Schoenoplectiella juncoides, 504 h; rice cropping systems, in-water applied (paddy), 35 g ae/ha, 21 DAA; may represent multiple trials; read-out: Visual Injury (%) SCPJU. As for the experimental part: as §1, §2, §3, §4

Series [9] has as its system Echinochloa crus-galli (L.) P.BEAUV. (barnyardgrass). Put plainly: Postemergence foliar-applied herbicidal activity in direct seeded rice (Example 16). Conditions: rice cropping systems, 8.75 g ae/ha, 21 DAA, may represent multiple trials. The series is classed as in vivo.
Text: as §5, §6, §7, §4

In the case of `COc1ccc(COC(=O)c2nc(-c3ccc(Cl)c(OC)c3F)cc(N)c2Cl)cc1` [Compound 36, 4-methoxybenzyl 4-amino-3-chloro-6-(4-chloro-2-fluoro-3-methoxyphenyl)picolinate], the “Visual Injury (%) FIMMI” value in [1] worked out at 100%.
`COc1c(Cl)ccc(-c2cc(N)c(Cl)c(C(=O)OCc3ccc(Cl)cc3Cl)n2)c1F` [Compound 17, 2,4-dichlorobenzyl 4-amino-3-chloro-6-(4-chloro-2-fluoro-3-methoxyphenyl)picolinate]: the “Visual Injury (%) CYPRO” value in series [2] was 100%. The pest or weed control at 35 g/ha in [3] turned out to be 98%.
Regarding `COc1c(Cl)ccc(-c2cc(N)c(Cl)c(C(=O)OCc3ccccc3)n2)c1Cl` [Compound 38, benzyl 4-amino-3-chloro-6-(2,4-dichloro-3-methoxyphenyl)-picolinate], the “Visual Injury (%) BRAPP” value in [4] is 90%. Also, the pest or weed control at 8.75 g/ha in series [5] amounted to 100%; in series [6] it was 90%; in series [7], 100%. Besides, the pest or weed control at 35 g/ha in series [3] turned out to be 99%; in [8], 100%.
As for `C=Cc1c(N)nc(-c2ccc(Cl)c(OC)c2F)nc1C(=O)OC` [D, methyl 6-amino-2-(4-chloro-2-fluoro-3-methoxyphenyl)-5-vinylpyrimidine-4-carboxylate, reference compound], in series [6], the pest or weed control at 8.75 g/ha came to 79%. For the same compound, in [9], the “Visual Injury (%) ECHCG” value was 87%. Further, the pest or weed control at 35 g/ha in series [3] is 54%.
In turn, `C=Cc1c(N)nc(-c2ccc(Cl)c(OC)c2F)nc1C(=O)OCc1ccccc1` [Compound 35, benzyl 6-amino-2-(4-chloro-2-fluoro-3-methoxyphenyl)-5-vinylpyrimidine-4-carboxylate] registered a melting point of 119 to 121 °C. In addition, the pest or weed control at 8.75 g/ha in series [6] is 90%. In series [9], the “Visual Injury (%) ECHCG” value is 95%. Moreover, the pest or weed control at 35 g/ha in [3] is 76%.
For the compound `COC(=O)c1nc(-c2ccc(Cl)c(OC)c2Cl)cc(N)c1Cl` [Compound C, methyl 4-amino-3-chloro-6-(2,4-dichloro-3-methoxyphenyl)picolinate, reference compound], the “Visual Injury (%) BRAPP” value in series [4] worked out at 74%. In addition, the figures for the pest or weed control at 8.75 g/ha in [5], in series [6] and in [7] were 96%, 84% and 90%, respectively. The pest or weed control at 35 g/ha in series [3] turned out to be 36%; in [8], 83%.
